Data from patent publication US10011584B2, “Polymorphic form of [5-fluoro-3-({2-[(4-fluorobenzene) sulfonyl]pyridin-3-yl}methyl)-2-methylindol-1-yl]-acetic acid” (Atopix Therapeutics Limited, priority 2014, dated 2018).
Blank lines part the entries; values can stand above or below the molecule they belong to.

Key:
Format in all cases: physicochemical
[1] = Thermodynamic stability of polymorphic forms (suspension equilibration of a mixture of forms, PXRD); settings: for temperature range of thermodynamic stability (in words): enantiotropic polymorphs
Protocol: Polymorphic Form 2 has a melting signal at 196° C. as measured by differential scanning calorimetry and is stable at temperatures up to about 60-65° C.
A mixture with similar ratios of the products of Example 4, Experiment 15 (Form 1), Example 4, Experiment 9 (form 2+x) and Example 4, Experiment 6 (Form 2+Form 3) were suspended in acetonitrile and shaken for 13 days at 22° C. to give a product designated Product P24). The solid was recovered by filter centrifugation and characterized by PXRD. […] These signals could be assigned to (i) another crystalline form or (ii) the signals could not be detected for Product P24 because the diffractogram has a lower intensity.
Thus, after 13 days at 22° C. the PXRD corresponds to that of Form 2.

[2] = Dynamic vapour sorption (DVS) with FT-Raman check pre- and post-measurement
Protocol: (§1) In the Examples the following conditions were used for measurements. • 1H-NMR: 1H-NMR spectra were recorded using a Bruker DPX300 spectrometer with a proton frequency of 300.13 MHz, a 30° excitation pulse, and a recycle delay of 1 s. 16 scans were accumulated. d6-DMSO was used as the solvent. • DSC: Differential scanning calorimetry was carried out with a Perkin Elmer DSC-7 instrument (closed gold sample pan under N2 atmosphere). • DVS (SPS): Sorption Measurement System SPS11-100n. The sample was placed in an Al crucible, and the sample was allowed to equilibrate at a given r.h. before starting a predefined humidity program. The used measurement program can be recognized in the corresponding figures (blue line). • FT-Raman spectroscopy: FT-Raman spectra were recorded on a Bruker RFS 100 FT-Raman system with a near infrared Nd:YAG laser operating at 1064 nm and a liquid nitrogen-cooled germanium detector. For each sample, a minimum of 64 scans with a resolution of 2 cm^−1 were accumulated. 300 mW laser power was used. The FT-Raman data are shown in the region between 3500 to 100 cm^−1. […] Sample preparation: The samples were generally measured without any special treatment other than the application of slight pressure to get a flat surface. […]
In order to examine the behaviour of Batch 1 in the presence of variable water vapour pressure, the sample was analyzed by DVS. […]

[3] = TG-FTIR thermogravimetry; settings: 25° C. to 250° C., heating rate 10° C./min
Protocol: as §1
Batch 3 was analyzed by TG-FTIR in a temperature range of 25° C. to 250° C. and a heating rate of 10° C./min. […]

most stable form after suspension equilibration ([1]; mixture of Forms 1, 2 and 3 in acetonitrile, shaken 13 days at 22° C., PXRD): most stable form at room temperature
temperature up to which the form is thermodynamically stable ([1]; upper limit of stability range of the polymorphic form): 60-65 °C
Structure (SMILES): Cc1c(Cc2cccnc2S(=O)(=O)c2ccc(F)cc2)c2cc(F)ccc2n1CC(=O)O [Form 2, [5-fluoro-3-({2-[(4-fluorobenzene)sulfonyl]pyridin-3-yl}methyl)-2-methylindol-1-yl]-acetic acid]

phase transition of sample recovered from DVS ([2]; FT-Raman pre- and post DVS): no phase transition
mass change at the end of the DVS measurement versus starting material ([2]; end humidity 50% r.h., scanning rate 5% r.h. per hour, cycle 50-0-95-50% r.h.): 0.6%
Structure (SMILES): Cc1c(Cc2cccnc2S(=O)(=O)c2ccc(F)cc2)c2cc(F)ccc2n1CC(=O)O [Batch 1, [5-fluoro-3-({2-[(4-fluorobenzene)sulfonyl]pyridin-3-yl}methyl)-2-methylindol-1-yl]-acetic acid]

Structure (SMILES): Cc1c(Cc2cccnc2S(=O)(=O)c2ccc(F)cc2)c2cc(F)ccc2n1CC(=O)O [Form 1, [5-fluoro-3-({2-[(4-fluorobenzene)sulfonyl]pyridin-3-yl}methyl)-2-methylindol-1-yl]-acetic acid]
temperature range of thermodynamic stability (in words) [1]: thermodynamically stable at high temperatures

Structure (SMILES): Cc1c(Cc2cccnc2S(=O)(=O)c2ccc(F)cc2)c2cc(F)ccc2n1CC(=O)O [Form 3, [5-fluoro-3-({2-[(4-fluorobenzene)sulfonyl]pyridin-3-yl}methyl)-2-methylindol-1-yl]-acetic acid]
temperature range of thermodynamic stability (in words) [1]: stable at temperatures between the stability ranges of Forms 2 and 1

decomposition temperature [3]: > 160 °C
Structure (SMILES): Cc1c(Cc2cccnc2S(=O)(=O)c2ccc(F)cc2)c2cc(F)ccc2n1CC(=O)O [Batch 3, [5-fluoro-3-({2-[(4-fluorobenzene)sulfonyl]pyridin-3-yl}methyl)-2-methylindol-1-yl]-acetic acid]
